Measured values taken from paper PMC8766756, “Insights on Cancer Cell Inhibition, Subcellular Activities, and Kinase Profile of Phenylacetamides Pending 1H-Imidazol-5-One Variants” (Frontiers in Pharmacology, 2022).
Several values for one entry are separate records, joined by “and”; a condition that tells them apart may be missing. Equal entries are not always repeated.

Columns and labels:
Assay in all cases: PamChip tyrosine kinase microarray
Assay type in all cases: biochemical
Conditions in all cases: 0.1 µM, HL60 lysate
HER3 (P21860) = biological target: T1, HER3 (P21860) (Homo sapiens, UniProt P21860)
T1 construct: purchased PamGene (PamChip PTK array, Upstream Kinase Analysis)
T1 sequence (P21860 20-1342): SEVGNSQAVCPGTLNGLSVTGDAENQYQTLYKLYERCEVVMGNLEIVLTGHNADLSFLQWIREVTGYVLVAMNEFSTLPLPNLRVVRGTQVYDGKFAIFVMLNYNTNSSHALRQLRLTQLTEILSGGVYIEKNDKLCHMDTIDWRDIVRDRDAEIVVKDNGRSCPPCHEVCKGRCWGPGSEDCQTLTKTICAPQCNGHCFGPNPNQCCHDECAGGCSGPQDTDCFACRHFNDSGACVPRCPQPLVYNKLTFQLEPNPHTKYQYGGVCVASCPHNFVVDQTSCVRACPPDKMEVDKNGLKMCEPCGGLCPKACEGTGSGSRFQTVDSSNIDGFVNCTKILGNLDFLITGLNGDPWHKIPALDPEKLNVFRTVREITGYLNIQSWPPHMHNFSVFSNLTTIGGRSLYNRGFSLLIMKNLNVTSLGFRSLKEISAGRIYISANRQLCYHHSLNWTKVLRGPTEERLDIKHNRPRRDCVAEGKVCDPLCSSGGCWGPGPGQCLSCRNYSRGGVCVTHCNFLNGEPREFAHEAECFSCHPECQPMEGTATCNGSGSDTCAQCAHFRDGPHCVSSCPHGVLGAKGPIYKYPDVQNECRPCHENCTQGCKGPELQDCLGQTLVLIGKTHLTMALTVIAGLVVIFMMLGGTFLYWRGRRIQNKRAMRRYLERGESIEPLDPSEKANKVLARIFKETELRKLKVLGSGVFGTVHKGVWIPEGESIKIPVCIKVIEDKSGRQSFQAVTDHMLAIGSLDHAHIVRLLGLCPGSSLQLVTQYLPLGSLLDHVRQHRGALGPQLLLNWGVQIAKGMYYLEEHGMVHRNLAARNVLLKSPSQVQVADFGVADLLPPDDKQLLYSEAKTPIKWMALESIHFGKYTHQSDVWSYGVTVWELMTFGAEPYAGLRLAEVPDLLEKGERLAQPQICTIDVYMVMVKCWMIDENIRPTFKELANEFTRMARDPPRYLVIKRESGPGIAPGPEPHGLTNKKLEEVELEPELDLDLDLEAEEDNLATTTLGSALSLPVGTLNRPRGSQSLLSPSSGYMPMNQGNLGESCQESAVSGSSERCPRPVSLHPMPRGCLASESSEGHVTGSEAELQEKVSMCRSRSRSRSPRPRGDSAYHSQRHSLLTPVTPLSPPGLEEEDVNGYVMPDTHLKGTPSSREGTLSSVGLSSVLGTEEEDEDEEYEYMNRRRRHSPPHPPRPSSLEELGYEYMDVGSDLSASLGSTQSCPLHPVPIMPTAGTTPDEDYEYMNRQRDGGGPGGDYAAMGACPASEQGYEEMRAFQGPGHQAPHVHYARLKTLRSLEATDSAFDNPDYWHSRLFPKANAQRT
Summary of the method: (§1)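 HL60 (AML) cell lysate was spiked with compound at 0.001, 0.01, 0.1, 1, 10 and 50 µM, or 2% v/v DMSO as control, then profiled in technical replicates on a tyrosine kinase peptide array of 196 phosphosites. Kinase activity was inferred from peptide-set changes using an upstream kinase tool.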

JAK1~b (P23458) = biological target: T2, JAK1~b (P23458) (Homo sapiens, UniProt P23458)
T2 construct: JAK1~b (P23458); purchased PamGene (PamChip PTK array, Upstream Kinase Analysis)
T2 sequence (P23458 whole entry): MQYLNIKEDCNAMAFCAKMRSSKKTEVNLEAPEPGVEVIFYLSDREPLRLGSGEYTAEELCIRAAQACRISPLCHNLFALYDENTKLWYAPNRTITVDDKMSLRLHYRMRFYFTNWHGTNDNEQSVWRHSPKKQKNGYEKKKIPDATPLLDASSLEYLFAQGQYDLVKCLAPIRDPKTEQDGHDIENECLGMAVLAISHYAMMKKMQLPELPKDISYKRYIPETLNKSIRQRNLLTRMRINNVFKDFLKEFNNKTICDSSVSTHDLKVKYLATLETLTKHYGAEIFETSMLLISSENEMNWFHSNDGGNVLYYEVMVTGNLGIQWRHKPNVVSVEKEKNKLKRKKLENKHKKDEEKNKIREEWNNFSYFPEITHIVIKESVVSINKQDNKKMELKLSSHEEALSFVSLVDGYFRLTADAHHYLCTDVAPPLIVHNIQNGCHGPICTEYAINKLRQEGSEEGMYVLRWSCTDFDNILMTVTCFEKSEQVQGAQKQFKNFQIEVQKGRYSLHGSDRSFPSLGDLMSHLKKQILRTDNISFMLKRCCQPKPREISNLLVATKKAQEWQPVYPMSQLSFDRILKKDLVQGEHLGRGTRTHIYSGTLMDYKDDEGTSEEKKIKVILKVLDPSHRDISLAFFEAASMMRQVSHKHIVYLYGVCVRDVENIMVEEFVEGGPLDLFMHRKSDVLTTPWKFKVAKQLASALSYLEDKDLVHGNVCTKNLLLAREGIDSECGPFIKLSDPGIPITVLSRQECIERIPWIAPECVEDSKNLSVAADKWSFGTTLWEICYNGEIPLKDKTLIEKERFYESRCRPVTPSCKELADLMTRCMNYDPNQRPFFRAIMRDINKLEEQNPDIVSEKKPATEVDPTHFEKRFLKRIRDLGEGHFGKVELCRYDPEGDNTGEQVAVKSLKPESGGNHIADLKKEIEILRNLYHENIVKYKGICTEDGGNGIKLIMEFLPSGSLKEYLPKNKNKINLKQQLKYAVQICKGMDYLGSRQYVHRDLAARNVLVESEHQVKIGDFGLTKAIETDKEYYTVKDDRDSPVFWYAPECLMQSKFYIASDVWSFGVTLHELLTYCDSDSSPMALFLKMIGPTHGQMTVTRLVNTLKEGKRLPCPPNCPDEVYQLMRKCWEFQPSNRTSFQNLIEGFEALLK
Summary of the method: as §1

Axl (P30530) = biological target: T3, Axl (P30530) (Homo sapiens, UniProt P30530)
T3 construct: purchased PamGene (PamChip PTK array, Upstream Kinase Analysis)
T3 sequence (P30530 26-894): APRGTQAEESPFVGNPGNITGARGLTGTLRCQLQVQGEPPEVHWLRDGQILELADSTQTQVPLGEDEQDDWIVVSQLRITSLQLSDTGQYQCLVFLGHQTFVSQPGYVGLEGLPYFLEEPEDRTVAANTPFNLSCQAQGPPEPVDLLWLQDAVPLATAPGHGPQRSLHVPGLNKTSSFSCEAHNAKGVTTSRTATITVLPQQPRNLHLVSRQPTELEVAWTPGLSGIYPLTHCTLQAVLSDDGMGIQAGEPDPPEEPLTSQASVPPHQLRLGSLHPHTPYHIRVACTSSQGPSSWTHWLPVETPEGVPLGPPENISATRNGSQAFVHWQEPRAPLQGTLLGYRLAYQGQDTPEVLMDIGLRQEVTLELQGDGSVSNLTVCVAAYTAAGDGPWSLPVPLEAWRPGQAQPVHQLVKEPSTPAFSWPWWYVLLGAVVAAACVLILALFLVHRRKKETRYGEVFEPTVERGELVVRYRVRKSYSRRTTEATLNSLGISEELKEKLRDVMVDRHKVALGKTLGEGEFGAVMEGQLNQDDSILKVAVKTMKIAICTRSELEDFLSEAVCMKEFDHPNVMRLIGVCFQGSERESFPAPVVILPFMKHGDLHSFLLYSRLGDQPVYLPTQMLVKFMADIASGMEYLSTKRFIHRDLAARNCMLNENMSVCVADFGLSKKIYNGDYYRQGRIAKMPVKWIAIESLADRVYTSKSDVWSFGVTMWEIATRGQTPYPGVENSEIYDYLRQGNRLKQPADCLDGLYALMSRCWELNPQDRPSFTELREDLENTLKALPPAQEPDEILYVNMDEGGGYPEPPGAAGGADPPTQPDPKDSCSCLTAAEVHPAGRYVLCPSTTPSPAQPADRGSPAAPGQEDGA
Summary of the method: as §1

HCK (P08631) = biological target: T4, HCK (P08631) (Homo sapiens, UniProt P08631)
T4 construct: purchased PamGene (PamChip PTK array, Upstream Kinase Analysis)
T4 sequence (P08631 whole entry): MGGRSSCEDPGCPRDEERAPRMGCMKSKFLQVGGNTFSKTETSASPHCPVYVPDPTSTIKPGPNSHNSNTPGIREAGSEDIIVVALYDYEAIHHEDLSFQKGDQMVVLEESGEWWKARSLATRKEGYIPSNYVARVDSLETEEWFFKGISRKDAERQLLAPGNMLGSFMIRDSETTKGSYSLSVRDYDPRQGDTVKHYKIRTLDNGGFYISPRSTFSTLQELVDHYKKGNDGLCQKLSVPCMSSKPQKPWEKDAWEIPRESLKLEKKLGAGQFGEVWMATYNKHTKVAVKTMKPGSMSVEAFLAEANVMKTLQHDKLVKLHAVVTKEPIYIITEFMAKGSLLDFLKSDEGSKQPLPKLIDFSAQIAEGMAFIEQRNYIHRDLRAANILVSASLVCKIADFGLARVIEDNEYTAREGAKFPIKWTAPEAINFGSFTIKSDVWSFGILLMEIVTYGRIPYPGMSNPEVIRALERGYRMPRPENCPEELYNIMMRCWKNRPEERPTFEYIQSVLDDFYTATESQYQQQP
Summary of the method: as §1

Kit (P10721) = biological target: T5, Kit (P10721) (Homo sapiens, UniProt P10721)
T5 construct: purchased PamGene (PamChip PTK array, Upstream Kinase Analysis)
T5 sequence (P10721 26-976): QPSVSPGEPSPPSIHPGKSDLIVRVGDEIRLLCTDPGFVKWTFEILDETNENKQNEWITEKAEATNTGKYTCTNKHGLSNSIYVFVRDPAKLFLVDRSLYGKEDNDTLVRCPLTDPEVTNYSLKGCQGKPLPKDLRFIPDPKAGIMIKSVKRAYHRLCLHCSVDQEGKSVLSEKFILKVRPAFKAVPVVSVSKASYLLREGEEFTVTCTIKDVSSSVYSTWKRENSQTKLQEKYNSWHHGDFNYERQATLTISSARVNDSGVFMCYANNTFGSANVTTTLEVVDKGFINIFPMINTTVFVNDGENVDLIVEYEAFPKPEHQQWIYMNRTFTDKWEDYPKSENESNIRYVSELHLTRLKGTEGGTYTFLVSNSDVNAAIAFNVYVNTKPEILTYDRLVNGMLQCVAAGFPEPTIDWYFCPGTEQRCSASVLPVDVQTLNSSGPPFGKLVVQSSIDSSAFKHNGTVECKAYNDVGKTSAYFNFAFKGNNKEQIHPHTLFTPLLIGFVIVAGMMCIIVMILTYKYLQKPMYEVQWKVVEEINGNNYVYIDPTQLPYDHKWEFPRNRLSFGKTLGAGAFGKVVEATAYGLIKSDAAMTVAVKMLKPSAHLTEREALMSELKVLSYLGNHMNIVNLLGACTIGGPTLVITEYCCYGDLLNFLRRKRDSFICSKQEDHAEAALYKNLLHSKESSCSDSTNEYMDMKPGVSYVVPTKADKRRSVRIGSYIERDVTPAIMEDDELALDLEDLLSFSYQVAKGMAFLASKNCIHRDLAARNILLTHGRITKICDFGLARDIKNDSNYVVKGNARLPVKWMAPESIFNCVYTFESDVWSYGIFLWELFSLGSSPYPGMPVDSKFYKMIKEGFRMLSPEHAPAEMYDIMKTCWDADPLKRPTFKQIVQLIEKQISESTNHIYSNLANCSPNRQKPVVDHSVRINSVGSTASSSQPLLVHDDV
Summary of the method: as §1

COc1ccc(/C=C2\N=C(C)N(c3ccc(CC(=O)NCc4ccccc4)cc3)C2=O)cc1 [Compound 4c, (Z)-N-Benzyl-2-(4-(4-(4-methoxybenzylidene)-2-methyl-5-oxo-4,5-dihydro-1H-imidazol-1-yl)phenyl)acetamide]
Mean Final score (Kinase score) (HER3 (P21860)): 2.412 | Mean Kinase Statistic (HER3 (P21860)): -1.214 | Mean Significance Score (HER3 (P21860)): 2.014 | Mean Specificity Score (HER3 (P21860)): 0.4279 | Mean Significance Score (JAK1~b (P23458)): 1.955 | Mean Specificity Score (JAK1~b (P23458)): 1.609 | Mean Final score (Kinase score) (JAK1~b (P23458); listed as KIM-161): 3.51 and 3.514 | Mean Final score (Kinase score) (Axl (P30530)): 2.569 | Mean Kinase Statistic (Axl (P30530)): -1.219 | Mean Significance Score (Axl (P30530)): 2.048 | Mean Specificity Score (Axl (P30530)): 0.5684 | Mean Final score (Kinase score) (HCK (P08631)): 1.871 | Mean Kinase Statistic (HCK (P08631)): -1.0936 | Mean Significance Score (HCK (P08631)): 1.7269 | Mean Specificity Score (HCK (P08631)): 0.1451 | Mean Final score (Kinase score) (Kit (P10721)): 2.581 | Mean Kinase Statistic (Kit (P10721)): -1.291 | Mean Significance Score (Kit (P10721)): 2.048 | Mean Specificity Score (Kit (P10721)): 0.5837
